The record followed here is article PMC12627232 (MedComm, 2025).

A word on the TGI: it is the reduction of tumour growth relative to the control group.

The subject of data set [1] is MDA-MB-231 xenograft. The data set is described as follows: MDA-MB-231 xenograft model. In kind it is in vivo, BALB/c-nu mice. The method, then: BALB/c‐nu mice were obtained from Pengyue Co. Ltd. (Jinan, China) and were fed in laminar flow cabinets under specific pathogen‐free (SPF) conditions. With the approval of ethics committee of Shandong University, the animal experiments were conducted. To establish the MDA‐MB‐231 xenograft model, BALB/c‐nu mice (3–4 weeks old and 15–18 g body weight, male) were selected and injected subcutaneously into the armpits with 1.2 × 10^7 MDA‐MB‐231 cells. […] Body weight and tumor size were measured every 3 days during the 22‐day treatment.

Data set [2] deals with MDA-MB-231 cells. The data set is described as follows: PD-L1 expression by flow cytometry. Format: cell-based, human. The method, then: MDA‐MB‐231 cells in logarithmic growth phase were inoculated into six‐well plates with a cell density of 3 × 10^4 cells per well. After incubated at 37°C for 24 h, the original medium was abandoned and 900 µL complete medium was added, in which HitransG P infection solution was added. The virus dosage was calculated according to the formula and added to the cell. Virus volume = cell number × MOI value/virus titer. After incubated in the incubator at 37°C for 16 h, replace fresh complete medium. After that, the medium changed every 24 h. 48 h after infection, the cells were treated with or without compound at a concentration of 1 µM. After 48 h of culture, the fluorescence expression was observed under microscope, and the silencing effect of shHDAC1 was detected by Western Blot. The antibodies HDAC1 (Abmart; #T55154) and GAPDH (Beyotime; #AF2819) were used. The HDAC1‐siRNA lentivirus (shHDAC1) and negative control lentivirus (shCtrl) were obtained from Shanghai GeneChem Co., Ltd. (Shanghai, China).
Next, cells were digested into single‐cell suspension with trypsin, collected in a flow tube and washed with precooled 1 × PBS. Mouse serum was added to cells for 30 min at room temperature to block cells. Then the cells were incubated with anti‐human‐PD‐L1 (BioLegend; #329732) at 4°C for 1 h, and flow cytometry was performed with FACS Celesta (BD Biosciences, USA). […]

With `O=C(CCCCCCNC(=O)c1cc(OCCc2ccccc2)c2ccccc2n1)NO` [SDFZ-8], the “general health of the mice” value in data set [1] (MDA-MB-231 xenograft BALB/c-nu mice, 60 mg/kg/day) is listed as “without adversely affecting the general health of the mice”. This molecule gave a TGI in data set [1] (MDA-MB-231 xenograft, BALB/c-nu mice, 60 mg/kg/day oral gavage, 22 days) of 76%. The PD-L1 expression entry in data set [2] is “increase”.
